Results from US8129557B2, “Phosphonic acid diester derivative and method for producing thereof” (priority 2005, dated 2012).
Marks after values point to notes of the source that are not given here.

Key:
[1] = target: T1, human GGT (Homo sapiens, UniProt P19440); assay: Second-order rate constant kon of human GGT inactivation (continuous or discontinuous assay); assay type: biochemical; settings: for kon Human GGT: second-order rate constant for enzyme inactivation, pH 5.5, 25° C.; for plot of log kon (human GGT) against pKa of aryl group, FIG. 4: position relative to the straight line
T1 construct: purchased Asahi Kasei Co., Ltd. HC-GTP (lot 603AA)
T1 sequence (P19440 1-380 limits assumed): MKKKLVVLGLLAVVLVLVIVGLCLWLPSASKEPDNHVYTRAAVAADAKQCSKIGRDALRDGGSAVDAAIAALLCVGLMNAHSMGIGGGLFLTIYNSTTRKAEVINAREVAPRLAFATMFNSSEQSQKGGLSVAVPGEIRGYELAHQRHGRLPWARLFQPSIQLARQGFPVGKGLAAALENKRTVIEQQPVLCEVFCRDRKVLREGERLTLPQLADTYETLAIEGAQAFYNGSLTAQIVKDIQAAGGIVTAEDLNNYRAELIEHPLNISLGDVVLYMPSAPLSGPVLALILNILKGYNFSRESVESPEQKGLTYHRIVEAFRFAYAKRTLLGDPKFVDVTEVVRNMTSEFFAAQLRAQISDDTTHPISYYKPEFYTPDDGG
T1 sequence (P19440 381-569 limits assumed): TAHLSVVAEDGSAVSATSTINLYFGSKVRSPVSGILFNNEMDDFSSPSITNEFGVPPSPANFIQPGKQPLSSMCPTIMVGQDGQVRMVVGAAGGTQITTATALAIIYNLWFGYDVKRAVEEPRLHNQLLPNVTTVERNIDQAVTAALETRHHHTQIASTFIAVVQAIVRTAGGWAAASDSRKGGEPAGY
Description: (§1) Purified enzyme of E-coli GGT and crude enzyme of human GGT were employed as GGT samples for an inhibition experiment. The enzyme whose physicochemical properties are described in the Document (Hideyuki Suzuki, Hidehiko Kumagai, Tatsurokukro Tochikura “gamma-Glutamyltranspeptidase from Escherichia coli K-12: Purification and Properties” Journal of Bacteriology, December 1986, Vol. 168, No. 3, p. 1325-1331) was used as a purified enzyme of E-coli GGT. Enzyme [HC-GTP (product number), 603AA (lot number)] manufactured by Asahi Kasei Co., Ltd. was used as a crude enzyme of human GGT. The crude enzyme of human GGT contained a large amount of bovine serum albumin (BSA) to stabilize the enzyme, and the GGT concentration was 1% or lower.
In the hydrolytic assay of human GGT, the measurement was carried out in the same manner as that in the hydrolytic assay of E-coli GGT, except that the substrate concentration was changed to […] and therefore, the explanation of the common portions was omitted.
(§2) Next, a second-order rate constant for enzyme inactivation kon was measured by either a continuous assay or a discontinuous assay. Both of the continuous and discontinuous assay for measuring inhibitory activity to GGT were carried out under a pseudo-first-order reaction condition.
(§3) In the continuous assay, while the temperature was kept at 25° C., the 100 mM succinic acid-sodium hydroxide buffer solutions (pH 5.5) containing an inhibitor in various concentrations and the substrate were preincubated for equilibrium. Herein, 0.2 μM of the substrate was used for the case of E-coli GGT and 0.4 μM of the substrate was used for the case of human GGT. Thereafter, the enzyme solution of the E-coli GGT was added in a manner that the final concentration became 0.04 nM and also the human GGT crude enzyme solution was added in a manner that the final concentration became 5 μg/mL. Accordingly, the reaction was started and the release of AMC (increase of the fluorescence intensity) was continuously traced for 10 minutes.
(§4) The fluorescence intensity data obtained from the respective curves was applied to the following pseudo-first-order rate equation (2) and the observed pseudo-first-order rate constant for enzyme inactivation (kobs) was calculated by nonlinear regression analysis [Stein, R. L. et al. Biochemistry 26, 2682-2689 (1987)].
(§5) [Equation 2] [P]=[P]∞[1−exp(−kobst)] (2)
(§6) When the kobs was plotted against to the inhibitor concentration ([I]), a linear relation was obtained until the maximum extent of the experimentally possible inhibitor concentration. Therefore, the second-order rate constant for enzyme inactivation kon was calculated using the following equation (3) deduced from the kinetic mechanism.
(§7) [drawing 37] [Equation 3] kobs=kon[I]/(1+[S]/Km) (3)
(§8) Herein, S denotes 7-(γ-L-glutamylamino)-4-methylcoumarin. The substrate concentration [S] for E-coli GGT is 0.2 μM and the Km value is 0.2 μM. […] The kinetic data was obtained by nonlinear regression analysis using Kaleida graph, a program produced by Synergy Software.
Further, in the discontinuous assay, an inhibitor in various concentrations was dissolved in 100 mM succinic acid-sodium hydroxide buffer solution (pH 5.5) and the enzyme solution was added to the resulting buffer solutions. Herein, in the case of E-coli GGT, the enzyme solution was added in a manner that the final concentration became 0.4 nM and also the human GGT crude enzyme solution was added in a manner that the final concentration became 0.5 mg/mL. Accordingly, the reaction of the inhibitor and each GGT was conducted at 25° C. An aliquot (10 μL) of each of the reaction solutions were sampled at every specified time to measure the remaining enzyme activity by the above-mentioned enzyme activation method. The remaining enzyme activity at every time was analyzed by nonlinear regression using the pseudo-first-order rate equation (4) of enzyme inactivation to calculate the value of kobs.
[Equation 4] αt/α0=exp(−kobst) (4) […]

[2] = Chemical stability: hydrolysis ratio after storage in water at room temperature; assay type: physicochemical
Protocol: Herein, the hydrolysis ratios of the reactive compounds of Examples 1 to 11 were measured after the respective compounds were stored in water at room temperature. In this connection, the compounds other than the compound of Example 10 were stored in water for 12 hours and the compound of Example 10 was stored in water for 112 hours.

[3] = Hydrolysis ratio of Example 7 in alkaline, neutral or acidic solvent; assay type: physicochemical; settings: for Hydrolysis ratio (%): after 12 hours
Protocol: Herein, the compound of Example 7 was dissolved in a solvent shown in Table 4 and kept at 23.5° C., and the hydrolysis ratio of the compound of Example 7 was measured after 12 hours.

[4] = target: T2, E-coli GGT (Escherichia coli, UniProt P18956); assay: Second-order rate constant kon of E-coli GGT inactivation (continuous or discontinuous assay); assay type: biochemical, Escherichia coli K-12; settings: for kon E-coli GGT: second-order rate constant for enzyme inactivation, pH 5.5, 25° C.
T2 construct: was used as a purified enzyme of E-coli GGT; made in house
T2 sequence (P18956 26-390 limits assumed): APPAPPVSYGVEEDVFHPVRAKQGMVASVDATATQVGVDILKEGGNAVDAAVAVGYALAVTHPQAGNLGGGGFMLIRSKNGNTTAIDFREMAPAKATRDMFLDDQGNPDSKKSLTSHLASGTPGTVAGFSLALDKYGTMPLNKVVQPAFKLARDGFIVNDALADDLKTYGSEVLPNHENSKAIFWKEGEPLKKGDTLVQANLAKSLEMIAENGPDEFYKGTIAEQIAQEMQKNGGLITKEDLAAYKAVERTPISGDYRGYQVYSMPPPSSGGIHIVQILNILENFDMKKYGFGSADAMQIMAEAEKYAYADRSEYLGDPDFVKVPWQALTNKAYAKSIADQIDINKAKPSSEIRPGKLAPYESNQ
T2 sequence (P18956 391-580 limits assumed): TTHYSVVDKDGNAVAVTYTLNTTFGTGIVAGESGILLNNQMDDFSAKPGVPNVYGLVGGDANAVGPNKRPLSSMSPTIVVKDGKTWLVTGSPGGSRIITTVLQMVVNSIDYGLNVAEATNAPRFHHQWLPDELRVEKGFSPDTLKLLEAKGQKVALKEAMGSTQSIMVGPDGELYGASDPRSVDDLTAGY
Description: as §1
In the hydrolytic assay of E. coli GGT, 10 μL of a […] enzyme solution was added to a 100 mM succinic acid-sodium hydroxide buffer solution (pH 5.5) in a total volume of 1 mL containing 100 μL of 2 μM substrate aqueous solution. The product, 7-amino-4-methylcoumarin (AMC), released along with the enzyme reaction was traced continuously at 25° C. using a fluorospectrophotometer F-2000 manufactured by Hitachi Ltd. (excitation wavelength: 350 nm, emission wavelength: 440 nm). The AMC concentration was separately measured by forming a calibration curve showing the relation of the fluorescence intensity (F) and the concentration (C) using standard solutions and was calculated from the relational expression (1) of the fluorescence intensity alteration (ΔF) and concentration alteration (ΔC).
as §2, §3, §4, §5, §6, §7, §8
Further, in the discontinuous assay, an inhibitor in various concentrations was dissolved in 100 mM succinic acid-sodium hydroxide buffer solution (pH 5.5) and the enzyme solution was added to the resulting buffer solutions. […]

[5] = stored in water at room temperature for 12 hours

COP(=O)(CCC(N)C(=O)O)Oc1ccc([N+](=O)[O-])cc1 (stereo not shown) [Example 7, 2-amino-4-[methyl(4-nitrophenyl)phosphono]butanoic Acid]
kon Human GGT [1]: 125.1 M^−1S^−1
Hydrolysis ratio (%) [2, 5]: 48.6%
Hydrolysis ratio (%) ([3]; 0.1 N CF3COOD, pH <1, 23.5° C.): 0%
Hydrolysis ratio (%) ([3]; 0.1 N CH3COOD, pH 2.9, 23.5° C.): 40%
Hydrolysis ratio (%) ([3]; 0.1 N DCl + MeOH, pH <1, 23.5° C.): 0%
Hydrolysis ratio (%) ([3]; 0.1 N DCl, pH <1, 23.5° C.): 0%
Hydrolysis ratio (%) ([3]; 0.1 N Na2CO3, pH 11.6, 23.5° C.): 100%
Hydrolysis ratio (%) ([3]; 0.1 N NaHCO3, pH 8.3, 23.5° C.): 100%
Hydrolysis ratio (%) ([3]; D2O, pH 7, 23.5° C.): 49%
hydrolysis ratio in words ([3]; under the acidic condition): low
hydrolysis ratio in words ([3]; under the alkaline condition): high
kon E-coli GGT [4]: 35000 M^−1S^−1

COP(=O)(CCC(N)C(=O)O)Oc1ccc(C)cc1 (stereo not shown) [Example 1, 2-amino-4-[methyl(4-methylphenyl)phosphono]butanoic Acid]
kon Human GGT [1]: 0.24 M^−1S^−1
Hydrolysis ratio (%) [2, 5]: 0%
kon E-coli GGT [4]: 23 M^−1S^−1

COP(=O)(CCC(N)C(=O)O)Oc1cccc(C(=O)O)c1 (stereo not shown) [Example 15, 2-amino-4-[3-carboxyphenyl(methyl)phosphono]butanoic Acid]
kon Human GGT [1]: 1.63 M^−1S^−1
kon E-coli GGT [4]: 450 M^−1S^−1

COP(=O)(CCC(N)C(=O)O)Oc1ccc(CC(=O)O)cc1 (stereo not shown) [Example 12, 2-amino-4-{[4-(carboxymethyl)phenyl](methyl)phosphono}butanoic Acid]
kon Human GGT [1]: 0.33 M^−1S^−1
kon E-coli GGT [4]: 200 M^−1S^−1

COP(=O)(CCC(N)C(=O)O)Oc1cccc([N+](=O)[O-])c1 (stereo not shown) [Example 14, 2-amino-4-[methyl(3-nitrophenyl)phosphono]butanoic Acid]
kon Human GGT [1]: 49 M^−1S^−1
kon E-coli GGT [4]: 5100 M^−1S^−1

CCCCOP(=O)(CCC(N)C(=O)O)Oc1ccccc1 (stereo not shown) [Example 9, 2-amino-4-[butyl(phenyl)phosphono]butanoic Acid]
kon Human GGT [1]: 0.023 M^−1S^−1
Hydrolysis ratio (%) [2, 5]: 0%
kon E-coli GGT [4]: 9.0 M^−1S^−1

NC(CCP(=O)(Oc1ccccc1)Oc1ccccc1)C(=O)O (stereo not shown) [Example 17, 2-amino-4-(diphenylphosphono)butanoic Acid]
kon Human GGT [1]: 0.41 M^−1S^−1
kon E-coli GGT [4]: 28 M^−1S^−1

COP(=O)(CCC(N)C(=O)O)Oc1ccc(C#N)cc1 (stereo not shown) [Example 6, 2-amino-4-[(4-cyanophenyl)(methyl)phosphono]butanoic Acid]
kon Human GGT [1]: 45.9 M^−1S^−1
Hydrolysis ratio (%) [2, 5]: 12.3%
kon E-coli GGT [4]: 12000 M^−1S^−1

COP(=O)(CCC(N)C(=O)O)Oc1ccc(C(F)(F)F)cc1 (stereo not shown) [Example 5, 2-amino-4-[methyl(4-trifluoromethylphenyl)phosphono]butanoic acid]
kon Human GGT [1]: 11.5 M^−1S^−1
Hydrolysis ratio (%) [2, 5]: 0%
kon E-coli GGT [4]: 2800 M^−1S^−1

COP(=O)(CCC(N)C(=O)O)Oc1ccc(C(=O)O)cc1 (stereo not shown) [Example 13, 2-amino-4-[4-carboxyphenyl(methyl)phosphono]butanoic Acid]
kon Human GGT [1]: 5.2 M^−1S^−1
kon E-coli GGT [4]: 3200 M^−1S^−1

COP(=O)(CCC(N)C(=O)O)Oc1ccc2c(C)cc(=O)oc2c1 (stereo not shown) [Example 8, 2-amino-4-[methyl(4-methylumbelliferyl)phosphono]butanoic Acid]
mode of inhibition of human GGT (activity plot, FIG. 2) ([1]; AMC fluorescence against time): irreversibly inactivate
plot of log kon (human GGT) against pKa of aryl group, FIG. 4 [1]: deviate upward
kon Human GGT [1]: 2400 M^−1S^−1
Hydrolysis ratio (%) [2, 5]: 6.0%
mode of inhibition of E-coli GGT (activity plot, FIG. 1) ([4]; AMC fluorescence against time): irreversibly inactivate
kon E-coli GGT [4]: 15700 M^−1S^−1

COP(=O)(CCC(N)C(=O)O)Oc1ccc(Cl)cc1 (stereo not shown) [Example 4, 2-amino-4-[(4-chlorophenyl)(methyl)phosphono]butanoic Acid]
kon Human GGT [1]: 5.0 M^−1S^−1
Hydrolysis ratio (%) [2, 5]: 0%
kon E-coli GGT [4]: 607 M^−1S^−1

COP(=O)(CCC(N)C(=O)O)Oc1ccccc1 (stereo not shown) [Example 3, 2-amino-4-[methyl(phenyl)phosphono]butanoic Acid]
kon Human GGT [1]: 0.40 M^−1S^−1
Hydrolysis ratio (%) [2, 5]: 0%
kon E-coli GGT [4]: 115 M^−1S^−1

N[C@H](C(=O)O)[C@@H]1CC(Cl)=NO1 [Comparative Example 1, (aS, 5S)-acivicin, reference compound]
kon Human GGT [1]: 0.40 ± 0.02 M^−1S^−1
kon E-coli GGT [4]: 4210 ± 10 M^−1S^−1

COc1ccc(OP(=O)(CCC(N)C(=O)O)OC)cc1 (stereo not shown) [Example 2, 2-amino-4-[(4-methoxyphenyl)(methyl)phosphono]butanoic Acid]
kon Human GGT [1]: 0.16 M^−1S^−1
Hydrolysis ratio (%) [2, 5]: 0%
kon E-coli GGT [4]: 19.5 M^−1S^−1

CCC(OP(=O)(CCC(N)C(=O)O)Oc1ccccc1)C(=O)NCC(=O)O (stereo not shown) [Example 10, 2-amino-4-[1-[N-(carboxymethyl)carbamoyl]propyl(phenyl)phosphono]butanoic acid]
plot of log kon (human GGT) against pKa of aryl group, FIG. 4 [1]: deviate upward
kon Human GGT [1]: 74.5 M^−1S^−1
Hydrolysis ratio (%) ([2]; stored in water at room temperature for 112 hours): 37.5* %
kon E-coli GGT [4]: 80.9 M^−1S^−1

COP(=O)(CCC(N)C(=O)O)Oc1cccc(CCC(=O)O)c1 (stereo not shown) [Example 16, 2-amino-4-{[3-(2-carboxyethyl)phenyl](methyl)phosphono}butanoic Acid]
plot of log kon (human GGT) against pKa of aryl group, FIG. 4 [1]: deviate upward
kon Human GGT [1]: 7.67 M^−1S^−1
kon E-coli GGT [4]: 71 M^−1S^−1
